In ChEMBL document CHEMBL1201862, “PubChem BioAssay data set” (2004):
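Following 48 hours of exposure in 96-well plates, responses at five concentrations were used to interpolate endpoints linearly. GI50 = concentration required for 50% inhibition of growth.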 Active and inactive are the calls of the source. Rule as the data show it: active = GI50 up to about 1.1 µM and inactive = higher.

How the values were obtained:
Test in all cases: NCI anticancer screen, dose series, 48 h
[1] = system: NCI-H226
[2] = system: NCI-H522
[3] = system: UACC-62
[4] = system: SK-MEL-2
[5] = system: SNB-75
[6] = system: HL-60
[7] = system: EKVX
[8] = system: DMS-273
[9] = system: SW-620
[10] = system: SN12C
[11] = system: HCT-116
[12] = system: SK-OV-3
[13] = system: TK-10
[14] = system: Malme-3M
[15] = system: COLO 205
[16] = system: HT-29
[17] = system: NCI-H460
[18] = system: M19-MEL
[19] = system: KM-20L2
[20] = system: SF-268
[21] = system: NCI-H23
[22] = system: CAKI-1
[23] = system: LXFL 529
[24] = system: UACC-257
[25] = system: SK-MEL-5
[26] = system: SNB-19
[27] = system: HCC 2998
[28] = system: U-251
[29] = system: UO-31
[30] = system: OVCAR-5
[31] = system: HCT-15
[32] = system: OVCAR-4
[33] = system: DLD-1
[34] = system: A549
[35] = system: SF-539
[36] = system: SF-295
[37] = system: ACHN
[38] = system: LOX IMVI
[39] = system: OVCAR-8
[40] = system: OVCAR-3
[41] = system: IGROV-1
[42] = system: RXF 393
[43] = system: DMS-114
[44] = system: MOLT-4
[45] = system: SR
[46] = system: HOP-18
[47] = system: SNB-78
[48] = system: M14
[49] = system: HOP-62
[50] = system: K562
[51] = system: CCRF-CEM
[52] = system: XF498
[53] = system: A498
[54] = system: KM12
[55] = system: SK-MEL-28
[56] = system: 786-0
[57] = system: HOP-92
[58] = system: RPMI-8226

For COc1ccc(/C(Cl)=C(\C=O)c2ccccc2)cc1OC, which GI50 [1] is on record?
Its GI50 is 21 µM (inactive).

What about the GI50 [2] of the same compound?
Its GI50 is 7.1 µM (inactive).

And the GI50 [3]?
The GI50 was 7.6 µM (inactive).

What about the GI50 [4] of the same compound?
Its GI50 is 19.4 µM (inactive).

What about the GI50 [5] of the same compound?
Its GI50 is 11.6 µM (inactive).

And the GI50 [6]?
Its GI50 is 6.78 µM (inactive).

And the GI50 [7]?
Its GI50 is 3.6 µM (inactive).

And the GI50 [8]?
The GI50 was 29.8 µM (inactive).

And the GI50 [9]?
The GI50 was 12.9 µM (inactive).

And the GI50 [10]?
The GI50 was 11 µM (inactive).

And the GI50 [11]?
Its GI50 is 23.4 µM (inactive).

What about the GI50 [12] of the same compound?
Its GI50 is 70.3 µM (inactive).

What about the GI50 [13] of the same compound?
Its GI50 is 21.4 µM (inactive).

And the GI50 [14]?
Its GI50 is 61 µM (inactive).

What about the GI50 [15] of the same compound?
Its GI50 is 10.1 µM (inactive).

And the GI50 [16]?
Its GI50 is 28.1 µM (inactive).

And the GI50 [17]?
Its GI50 is 28.8 µM (inactive).

What about the GI50 [18] of the same compound?
The GI50 was 13.6 µM (inactive).

What about the GI50 [19] of the same compound?
Its GI50 is 44 µM (inactive).

What about the GI50 [20] of the same compound?
Its GI50 is 33.1 µM (inactive).

And the GI50 [21]?
Its GI50 is 15.2 µM (inactive).

What about the GI50 [22] of the same compound?
The GI50 was 24.4 µM (inactive).

What about the GI50 [23] of the same compound?
Its GI50 is 12.4 µM (inactive).

What about the GI50 [24] of the same compound?
Its GI50 is 15.2 µM (inactive).

And the GI50 [25]?
The GI50 was 25.4 µM (inactive).

What about the GI50 [26] of the same compound?
The GI50 was 27.9 µM (inactive).

What about the GI50 [27] of the same compound?
Its GI50 is 38.5 µM (inactive).

What about the GI50 [28] of the same compound?
Its GI50 is 18 µM (inactive).

What about the GI50 [29] of the same compound?
The GI50 was 13.5 µM (inactive).

And the GI50 [30]?
The GI50 was > 100 µM (inactive).

And the GI50 [31]?
Its GI50 is 12.7 µM.

What about the GI50 [32] of the same compound?
The GI50 was 25 µM (inactive).

What about the GI50 [33] of the same compound?
The GI50 was 15.1 µM (inactive).

What about the GI50 [34] of the same compound?
The GI50 was 38.7 µM (inactive).

And the GI50 [35]?
Its GI50 is 31.4 µM (inactive).

What about the GI50 [36] of the same compound?
Its GI50 is 17.3 µM (inactive).

What about the GI50 [37] of the same compound?
Its GI50 is 23.3 µM (inactive).

And the GI50 [38]?
Its GI50 is 13.2 µM (inactive).

What about the GI50 [39] of the same compound?
Its GI50 is 12.7 µM (inactive).

What about the GI50 [40] of the same compound?
Its GI50 is 10.3 µM (inactive).

What about the GI50 [41] of the same compound?
Its GI50 is > 100 µM (inactive).

What about the GI50 [42] of the same compound?
Its GI50 is 14.4 µM (inactive).

What about the GI50 [43] of the same compound?
Its GI50 is 13.1 µM (inactive).

What about the GI50 [44] of the same compound?
Its GI50 is 6.85 µM (inactive).

What about the GI50 [45] of the same compound?
Its GI50 is 5.68 µM (inactive).

What about the GI50 [46] of the same compound?
Its GI50 is 30.1 µM (inactive).

And the GI50 [47]?
Its GI50 is 16.7 µM (inactive).

What about the GI50 [48] of the same compound?
The GI50 was 36.1 µM (inactive).

And the GI50 [49]?
The GI50 was 17.8 µM (inactive).

And the GI50 [50]?
The GI50 was 19.2 µM (inactive).

And the GI50 [51]?
The GI50 was 15.1 µM (inactive).

What does the source list for OC(c1ccccc1Br)(c1ccccc1Br)C(F)(F)F?
GI50 [1]: 10.9 µM (inactive); GI50 [52]: 23.1 µM (inactive); GI50 [2]: 11.6 µM (inactive); GI50 [3]: 26.8 µM (inactive); GI50 [4]: 18.5 µM (inactive); GI50 [53]: 30.1 µM (inactive); GI50 [5]: 33 µM (inactive); GI50 [7]: 33.9 µM (inactive); GI50 [8]: 20.3 µM (inactive); GI50 [9]: 19.4 µM (inactive); GI50 [10]: 19.1 µM (inactive); GI50 [11]: 19.7 µM (inactive); GI50 [12]: 36.5 µM (inactive); GI50 [13]: 52.1 µM (inactive); GI50 [54]: 15.6 µM (inactive); GI50 [14]: 24 µM (inactive); GI50 [15]: 18.2 µM (inactive); GI50 [16]: 14.7 µM (inactive); GI50 [17]: 27.7 µM (inactive); GI50 [18]: 23.9 µM (inactive); GI50 [19]: 24.5 µM (inactive); GI50 [20]: 20.9 µM (inactive); GI50 [21]: 27.9 µM (inactive); GI50 [22]: 48.1 µM (inactive); GI50 [23]: 42.1 µM (inactive); GI50 [24]: 37.8 µM (inactive); GI50 [26]: > 10 µM (inactive); GI50 [27]: 0.322 µM (active); GI50 [28]: 18.6 µM (inactive); GI50 [29]: 26.7 µM (inactive); GI50 [30]: 25.4 µM (inactive); GI50 [55]: 27.7 µM (inactive); GI50 [31]: 30.4 µM; GI50 [32]: 29.2 µM (inactive); GI50 [33]: 37.5 µM (inactive); GI50 [34]: 34.1 µM (inactive); GI50 [35]: 33.2 µM (inactive); GI50 [36]: 21.1 µM (inactive); GI50 [37]: 20.1 µM (inactive); GI50 [38]: 20.9 µM (inactive); GI50 [39]: 39.4 µM (inactive); GI50 [40]: 26.9 µM (inactive); GI50 [41]: 40.4 µM (inactive); GI50 [42]: 19.6 µM (inactive); GI50 [43]: 20.8 µM (inactive); GI50 [44]: 14.9 µM (inactive); GI50 [45]: 24.6 µM (inactive); GI50 [46]: 42.8 µM (inactive); GI50 [48]: 34.7 µM (inactive); GI50 [49]: 28 µM (inactive); GI50 [56]: 19.1 µM (inactive)

With Nc1nc(N)c2ncn(CC(CO)CC(c3ccccc3)P(=O)(O)O)c2n1 (stereo not given) as the compound, how does the GI50 [1] read?
The GI50 was > 100 µM (inactive).

And the GI50 [52]?
Its GI50 is > 100 µM (inactive).

And the GI50 [2]?
The GI50 was > 100 µM (inactive).

What about the GI50 [3] of the same compound?
The GI50 was > 100 µM (inactive).

And the GI50 [4]?
Its GI50 is > 100 µM (inactive).

What about the GI50 [53] of the same compound?
The GI50 was > 100 µM (inactive).

And the GI50 [5]?
The GI50 was > 100 µM (inactive).

What about the GI50 [6] of the same compound?
Its GI50 is > 100 µM (inactive).

What about the GI50 [8] of the same compound?
Its GI50 is > 100 µM (inactive).

And the GI50 [57]?
Its GI50 is > 100 µM (inactive).

What about the GI50 [9] of the same compound?
The GI50 was > 100 µM (inactive).

What about the GI50 [10] of the same compound?
Its GI50 is > 100 µM (inactive).

And the GI50 [11]?
The GI50 was > 100 µM (inactive).

And the GI50 [12]?
The GI50 was > 100 µM (inactive).

And the GI50 [13]?
The GI50 was > 100 µM (inactive).

And the GI50 [54]?
The GI50 was > 100 µM (inactive).

What about the GI50 [14] of the same compound?
Its GI50 is > 100 µM (inactive).

What about the GI50 [15] of the same compound?
Its GI50 is > 100 µM (inactive).

What about the GI50 [58] of the same compound?
The GI50 was > 100 µM (inactive).

And the GI50 [16]?
Its GI50 is > 100 µM (inactive).

And the GI50 [17]?
The GI50 was > 100 µM (inactive).

What about the GI50 [18] of the same compound?
The GI50 was > 100 µM (inactive).

And the GI50 [19]?
Its GI50 is > 100 µM (inactive).

And the GI50 [20]?
Its GI50 is > 100 µM (inactive).

And the GI50 [21]?
Its GI50 is > 100 µM (inactive).

And the GI50 [22]?
Its GI50 is > 100 µM (inactive).

And the GI50 [24]?
The GI50 was > 100 µM (inactive).

What about the GI50 [25] of the same compound?
The GI50 was > 100 µM (inactive).

And the GI50 [26]?
Its GI50 is > 100 µM (inactive).

And the GI50 [27]?
The GI50 was > 100 µM (inactive).

And the GI50 [28]?
The GI50 was > 100 µM (inactive).

And the GI50 [29]?
Its GI50 is > 100 µM (inactive).

What about the GI50 [30] of the same compound?
Its GI50 is > 100 µM (inactive).

And the GI50 [55]?
Its GI50 is > 100 µM (inactive).

And the GI50 [31]?
The GI50 was > 100 µM.

What about the GI50 [33] of the same compound?
The GI50 was > 100 µM (inactive).

And the GI50 [34]?
Its GI50 is > 100 µM (inactive).

And the GI50 [35]?
The GI50 was > 100 µM (inactive).

And the GI50 [36]?
Its GI50 is > 100 µM (inactive).

What about the GI50 [37] of the same compound?
The GI50 was > 100 µM (inactive).

What about the GI50 [38] of the same compound?
Its GI50 is > 100 µM (inactive).

And the GI50 [39]?
Its GI50 is > 100 µM (inactive).

What about the GI50 [40] of the same compound?
The GI50 was > 100 µM (inactive).

And the GI50 [41]?
The GI50 was > 100 µM (inactive).

And the GI50 [42]?
Its GI50 is > 100 µM (inactive).

What about the GI50 [43] of the same compound?
The GI50 was > 100 µM (inactive).

And the GI50 [44]?
Its GI50 is > 100 µM (inactive).

And the GI50 [46]?
Its GI50 is > 100 µM (inactive).

And the GI50 [47]?
Its GI50 is > 100 µM (inactive).

What about the GI50 [48] of the same compound?
The GI50 was 2.43 µM (inactive).

And the GI50 [49]?
The GI50 was > 100 µM (inactive).

What about the GI50 [50] of the same compound?
Its GI50 is > 100 µM (inactive).

What about the GI50 [51] of the same compound?
The GI50 was > 100 µM (inactive).
